Experimental data as given in US20220153718A1, “SYNTHESIS OF STABLE AMORPHOUS APALUTAMIDE” (OLON S.P.A., priority 2019, published 2022).

Assay: Solid-form stability under forced-air drying (XRPD)
Assay type: physicochemical
Conditions: drying at 90° C. for over 100 hours, under vacuum, in a stove
Procedure: Forced-air drying here means drying at 90° C. for over 100 hours, under vacuum, in a stove.

Row | SMILES | Stability of the amorphous form after forced-air drying
1 | CNC(=O)c1ccc(N2C(=S)N(c3cnc(C#N)c(C(F)(F)F)c3)C(=O)C23CCC3)cc1F [amorphous form obtained by evaporation of the solvent after ] [4-{7-[6-cyano-5-(trifluoromethyl)pyridin-3-yl]-8-oxo-6-sulphanylidene-5,7-diazaspiro[3,4]octan-5-yl}-2-fluoro-N-methylbenzamide] | converted to a mixture of amorphous form, form A and form B
2 | CNC(=O)c1ccc(N2C(=S)N(c3cnc(C#N)c(C(F)(F)F)c3)C(=O)C23CCC3)cc1F [stable amorphous form of apalutamide, 4-{7-[6-cyano-5-(trifluoromethyl)pyridin-3-yl]-8-oxo-6-sulphanylidene-5,7-diazaspiro[3,4]octan-5-yl}-2-fluoro-N-methylbenzamide] | stable
